Experimental data reported in US5114920A, “BU-3292T antibiotics” (priority 1988, dated 1992).
≈ marks a conversion by molar mass, not a printed value. Starred links: 1 amine or outer side, 2 acyl side, 3 side chain; linkers in the order of their positions; H or OH if unused. Positions of bridges follow the written chain, without caps; N, C: chain ends. Non-standard residues stand in square brackets, D forms with d. Residues, ends and D or L forms follow the SMILES beside them. Chains are numbered I, II in the order given. Actinocin(9to1) = Cc1c2oc3c(C)ccc(C(=O)[*:1])c3nc-2c(C(=O)[*:2])c(N)c1=O; X2 = CC1CCC(C(=O)[*:2])N1[*:1]; NMeV = CN[CH](C(=O)O)C(C)C; Sar = CNCC(=O)O

Experiments:
[1] = tested on: lymphocytic leukemia P388; assay: Antitumor activity against P388 leukemia (ip); format: in vivo, mice; conditions: for MST (Median survival time) / T/C: QD × 3, ip
Experimental: (§1) BU-3292T components A and B were tested for in vitro cytotoxicity against murine and human tumor cells and for in vivo antitumor activity in mice. Actinomycin D was used as a reference compound in both in vitro and in vivo experiments. B16-F10 (murine melanoma) and Moser (human colorectal carcinoma) cells were grown to the logarithmic phase in enriched Eagle minimum essential medium (MEM) supplemented with fetal calf serum (FCS, 10%) and kanamycin (60 mcg/ml), harvested and inoculated into wells of a 96-well microtiter plate with test materials at the concentrations of 3.0×10^4 and 6.0×10^4 cells/ml, respectively. They were incubated at 37° C. in humidified atmosphere of 5% CO2 and 95% air for 72 hours. The cytotoxic activity was determined colorimetrically at 540 nm after staining viable cells with neutral red. […] Inhibitory effects of BU-3292T component A on macromolecule (DNA, RNA and protein) synthesis were determined in vitro. Cultured L1210 murine leukemia cells (5×10^5 cells/ml) were incubated with test materials at 37° C. for 15 minutes and then further incubated for 60 minutes after the addition of labelled precursor, ^3 H-thymidine, ^14 C-uridine or ^3 H-leucine, into the cultured mixtures. After washing with chilled 5% trichloroacetic acid solution, the radioactivity incorporated into the acid-insoluble fraction of the tumor cells was determined in a liquid scintillation counter. […] In vivo antitumor activities of BU-3292T components A and B were tested in tumor-bearing female CDF mice. After the intraperitoneal implantation of diluted ascitic fluid with 1.0 ×10^6 lymphocytic leukemia P388 cells into the mice, test compounds were administered intraperitoneally once a day on days 1, 2 and 3 (QD×3).

[2] = Body weight change in P388-bearing mice; conditions: QD × 3, ip
Experimental: as §1

[3] = tested on: Clostridium perfringens A9635; format: cell-based; conditions: GAM agar
[4] = tested on: Propionibacterium acnes A21933; assay: Antimicrobial activity, serial two-fold agar dilution method; format: cell-based; conditions: GAM agar
Experimental: (§2) The antimicrobial activity of BU-3292T A and B was determined against aerobic and anaerobic bacteria and fungi by a serial two-fold agar dilution method. BU-3292T A and B are active against aerobic gram-positive bacteria, and weakly active against anaerobic gram-negative bacteria and fungi.

[5] = tested on: Streptococcus faecalis A9612; assay: as above; format: cell-based; conditions: Nutrient agar
Experimental: as §2

[6] = tested on: Clostridium difficile A21675; assay: as above; format: cell-based; conditions: GAM agar
Experimental: as §2

[7] = tested on: Bacillus subtilis PCI-219; assay: as above; format: cell-based; conditions: Nutrient agar
Experimental: as §2

[8] = tested on: Staphylococcus aureus 209P; assay: as above; format: cell-based; conditions: Nutrient agar
Experimental: as §2

Proteus mirabilis A9554 = assay: as above; format: cell-based; conditions: Nutrient agar
Experimental: as §2

[9] = tested on: Bacteroides fragilis A22693; assay: as above; format: cell-based; conditions: GAM agar
Experimental: as §2

[10] = tested on: Propionibacterium anaerobius A21905; assay: as above; format: cell-based; conditions: GAM agar
Experimental: as §2

[11] = tested on: Streptococcus pyogenes A20201; assay: as above; format: cell-based; conditions: Nutrient agar
Experimental: as §2

[12] = tested on: Staphylococcus epidermidis D153; assay: as above; format: cell-based; conditions: Nutrient agar
Experimental: as §2

[13] = tested on: Trichophyton mentagrophytes D155; assay: as above; format: cell-based; conditions: Sabouraud dextrose agar
Experimental: as §2

[14] = tested on: Klebsiella pneumoniae D11; assay: as above; format: cell-based; conditions: Nutrient agar
Experimental: as §2

[15] = tested on: Aspergillus fumigatus IAM 2530; assay: as above; format: cell-based; conditions: Sabouraud dextrose agar
Experimental: as §2

Proteus vulgalis A9436 = assay: as above; format: cell-based; conditions: Nutrient agar
Experimental: as §2

[16] = tested on: Candida albicans IAM 4888; assay: as above; format: cell-based; conditions: Sabouraud dextrose agar
Experimental: as §2

[17] = tested on: Pseudomonas aeruginosa A9930; assay: as above; format: cell-based; conditions: Nutrient agar
Experimental: as §2

Escherichia coli NIHJ = assay: as above; format: cell-based; conditions: Nutrient agar
Experimental: as §2

[18] = tested on: Cryptococcus neoformans IAM 4519; assay: as above; format: cell-based; conditions: Sabouraud dextrose agar
Experimental: as §2

[19] = tested on: Staphylococcus aureus smith; assay: as above; format: cell-based; conditions: Nutrient agar
Experimental: as §2

Micrococcus luteus 1001 = assay: as above; format: cell-based; conditions: Nutrient agar
Experimental: as §2

[20] = tested on: Fusarium moniliforme A2284; assay: as above; format: cell-based; conditions: Sabouraud dextrose agar
Experimental: as §2

Mucor spinosus IFO 5317 = assay: as above; format: cell-based
Experimental: as §2

[21] = tested on: B16-F10 (murine melanoma) cells; assay: In vitro cytotoxicity, neutral red staining; format: cell-based
Experimental: as §1

[22] = tested on: Moser (human colorectal carcinoma) cells; assay: In vitro cytotoxicity, neutral red staining; format: cell-based; conditions: 72 hours
Experimental: as §1

Solubility = format: physicochemical
From the text: BU-3292T A is isolated as a white amorphous powder, while BU-3292T B is an orange-red powder. […] The compounds give positive responses to iodine and Rydone-Smith reagents, but negative responses to Sakaguchi, ferric chloride, ninhydrin and anthrone reagents. […] The IR spectra of BU-3292T A and B are illustrated in FIGS. 1 and 2, respectively.

[23] = tested on: aerobic gram-positive bacteria; assay: Antimicrobial activity, agar dilution, summary in words; format: cell-based; conditions: summary of Table 6
Experimental: as §2

gram-negative bacteria = assay: as above; format: cell-based; conditions: summary of Table 6
Experimental: as §2

[24] = tested on: anaerobic gram-negative bacteria and fungi; assay: as above; format: cell-based; conditions: summary of Table 6
Experimental: as §2

SMILES: Cc1c2oc3c(C)ccc(C(=O)NC4C(=O)NC(C(C)C)C(=O)N5C(C)CCC5C(=O)N(C)CC(=O)N(C)C(C(C)C)C(=O)OC4C)c3nc-2c(C(=O)NC2C(=O)NC(C(C)C)C(=O)N3C(C)CCC3C(=O)N(C)CC(=O)N(C)C(C(C)C)C(=O)OC2C)c(N)c1=O (centres unmarked) [BU-3292T B] (I: TV[X2][Sar][NMeV] / II: TV[X2][Sar][NMeV]; ester I:1-I:C, II:1-II:C; linker I:N-II:N via Actinocin(9to1); configuration not given here)
- MST (Median survival time) ([1]; 0.003 mg/kg/day): 11.0 days
- T/C ([1]; 0.003 mg/kg/day): 110%
- MST (Median survival time) ([1]; 0.01 mg/kg/day): 12.0 days
- T/C ([1]; 0.01 mg/kg/day): 120%
- MST (Median survival time) ([1]; 0.03 mg/kg/day): 14.0 days
- T/C ([1]; 0.03 mg/kg/day): 140%
- MST (Median survival time) ([1]; 0.1 mg/kg/day): 16.0 days
- T/C ([1]; 0.1 mg/kg/day): 160%
- MST (Median survival time) ([1]; 0.3 mg/kg/day): 8.0 days
- T/C ([1]; 0.3 mg/kg/day): 80%
- MST (Median survival time) ([1]; 1 mg/kg/day): Tox
- T/C ([1]; 1 mg/kg/day): Tox
- maximum T/C value ([1]; anti-P388 leukemic activity, QD×3, ip): 160%
- Body weight change on day 4 ([2]; 0.003 mg/kg/day): +1.0 g
- Body weight change on day 4 ([2]; 0.01 mg/kg/day): +1.0 g
- Body weight change on day 4 ([2]; 0.03 mg/kg/day): +1.0 g
- Body weight change on day 4 ([2]; 0.1 mg/kg/day): -1.0 g
- Body weight change on day 4 ([2]; 0.3 mg/kg/day): -3.3 g
- MIC [3]: 25 µg/mL (≈ 19.5 µM)
- MIC [4]: 12.5 µg/mL (≈ 9.74 µM)
- MIC [5]: 0.8 µg/mL (≈ 0.623 µM)
- MIC [6]: > 100 µg/mL
- MIC [7]: 0.8 µg/mL (≈ 0.623 µM)
- MIC [8]: 1.6 µg/mL (≈ 1.25 µM)
- MIC (Proteus mirabilis A9554): > 100 µg/mL
- MIC [9]: > 100 µg/mL
- MIC [10]: 6.3 µg/mL (≈ 4.91 µM)
- MIC [11]: 0.8 µg/mL (≈ 0.623 µM)
- MIC [12]: 1.6 µg/mL (≈ 1.25 µM)
- MIC [13]: > 100 µg/mL
- MIC [14]: 100 µg/mL (≈ 77.9 µM)
- MIC [15]: > 100 µg/mL
- MIC (Proteus vulgalis A9436): > 100 µg/mL
- MIC [16]: > 100 µg/mL
- MIC [17]: > 100 µg/mL
- MIC (Escherichia coli NIHJ): > 100 µg/mL
- MIC [18]: > 100 µg/mL
- MIC [19]: 1.6 µg/mL (≈ 1.25 µM)
- MIC (Micrococcus luteus 1001): 0.4 µg/mL (≈ 0.312 µM)
- MIC [20]: 50 µg/mL (≈ 39 µM)
- MIC (Mucor spinosus IFO 5317; Mucor spinosus IFO 5317, Sabouraud dextrose agar): 25 µg/mL (≈ 19.5 µM)
- MIC (Mucor spinosus IFO 5317; in vitro against Mucor spinosus IF05317): 25 µg/mL (≈ 19.5 µM)
- IC50 ([21]; B16-F10, 72 hours): < 0.00016 µg/mL
- times stronger against B16-F10 cells than against Moser cells ([21]; cytotoxic activity, B16-F10 versus Moser): ~400 times
- IC50 [22]: 0.06 µg/mL (≈ 0.0467 µM)
- solubility in dimethyl sulfoxide, dimethylformamide, methanol, ethyl acetate and chloroform (Solubility; dimethyl sulfoxide, dimethylformamide, methanol, ethyl acetate, chloroform): readily soluble
- solubility in water and other organic solvents (Solubility; water and other organic solvents): insoluble
- activity against aerobic gram-positive bacteria [23]: active
- activity against gram-negative bacteria (gram-negative bacteria): inactive
- activity against anaerobic gram-negative bacteria and fungi [24]: weakly active
